We go through four molecules from patent publication US20210121527A1, “METHODS OF TREATING MINIMAL RESIDUAL CANCER” (ICAHN SCHOOL OF MEDICINE AT MOUNT SINAI, priority 2018, published 2021).

Type in all cases: binding
One assay addresses T1, PRKR (EIF2AK2) (Homo sapiens, UniProt P19525).
T1 construct: purchased DiscoverX (San Diego, Calif.) scanMAX
The experiment in a line: DiscoveRx scanMAX kinase profiling. As to conditions: read-out: Inhibition of PRKR/EIF2AK2 (KINOMEscan). The protocol:
(§1) TR-FRET kinase assays were performed in the absence or presence of inhibitors in a reaction buffer consisting of 50 mM HEPES, pH 7.5, 10 mMMgCl2, 1.0 mM EGTA, and 0.01% Brij-35, and 100-200 nM GFP-eIF2a substrate. […] Following the addition of test compound, the reaction was initiated by addition of enzyme and incubated at room temperature for 45 minutes. The reaction was stopped by addition of EDTA to a final concentration of 10 mM and Terbium-labelled phospho-eIF2α antibody was added at a final concentration of 2 nM and incubated for 90 minutes. The resulting fluorescence was monitored in an EnVison® Multilabel reader (PerkinElmer, Waltham, Mass.). TR-FRET ratios and the resulting IC50 values were determined from the fitted inhibition curves. Biochemical specificity profiling was performed at Cerep (Redmond, Wash.) and DiscoverX (San Diego, Calif.).

Assay [1] deals with T2, GCN2 (Kin.Dom.2,S808G) (EIF2AK4) (Homo sapiens, UniProt Q9P2K8, S808G).
T2 construct: Kin.Dom.2; purchased DiscoverX (San Diego, Calif.) scanMAX
T2 sequence (Q9P2K8 590-1001 S808G limits assumed): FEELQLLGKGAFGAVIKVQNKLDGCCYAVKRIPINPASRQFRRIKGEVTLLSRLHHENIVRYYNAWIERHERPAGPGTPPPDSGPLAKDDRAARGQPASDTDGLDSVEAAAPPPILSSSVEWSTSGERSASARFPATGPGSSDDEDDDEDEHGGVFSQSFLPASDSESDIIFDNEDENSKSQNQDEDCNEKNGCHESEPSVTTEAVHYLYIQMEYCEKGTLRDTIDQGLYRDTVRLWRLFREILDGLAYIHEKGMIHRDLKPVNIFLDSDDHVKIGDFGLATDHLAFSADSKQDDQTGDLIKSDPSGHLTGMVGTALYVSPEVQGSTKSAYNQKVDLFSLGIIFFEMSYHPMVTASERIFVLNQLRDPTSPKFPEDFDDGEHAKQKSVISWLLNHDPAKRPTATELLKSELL
The experiment in a line: DiscoveRx scanMAX kinase profiling. Conditions: read-out: Inhibition of GCN2/EIF2AK4 (KINOMEscan). The protocol: as §1

The target in the next assay is 456 kinases. The experiment in a line: DiscoveRx scanMAX kinase profiling, number of kinases inhibited. As to conditions: for # kinases inhibited >50%: 456 kinases tested; for number of kinases with >60% inhibition: 20 μM as stated in text, 456 kinases. The method, then:
as §1, with “Biochemical assays: Recombinant human EIF2AK3 (PERK) catalytic domain (amino acids 536-1116; Cat # PV5107), GFP-eIF2a (Cat # PV4809) substrate, and Terbium-labelled phospho-eIF2a antibody (Cat # PR8956B) were purchased from Invitrogen (Carlsbad, Calif.). HIS-SUMO-GCN2 catalytic domain (amino acids 584-1019) was expressed and purified from E. coli. TR-FRET kinase” for “TR-FRET kinase”

The target of a further assay is T3, CSK (Homo sapiens, UniProt P41240).
T3 construct: purchased DiscoverX (San Diego, Calif.)
T3 sequence (P41240 whole entry): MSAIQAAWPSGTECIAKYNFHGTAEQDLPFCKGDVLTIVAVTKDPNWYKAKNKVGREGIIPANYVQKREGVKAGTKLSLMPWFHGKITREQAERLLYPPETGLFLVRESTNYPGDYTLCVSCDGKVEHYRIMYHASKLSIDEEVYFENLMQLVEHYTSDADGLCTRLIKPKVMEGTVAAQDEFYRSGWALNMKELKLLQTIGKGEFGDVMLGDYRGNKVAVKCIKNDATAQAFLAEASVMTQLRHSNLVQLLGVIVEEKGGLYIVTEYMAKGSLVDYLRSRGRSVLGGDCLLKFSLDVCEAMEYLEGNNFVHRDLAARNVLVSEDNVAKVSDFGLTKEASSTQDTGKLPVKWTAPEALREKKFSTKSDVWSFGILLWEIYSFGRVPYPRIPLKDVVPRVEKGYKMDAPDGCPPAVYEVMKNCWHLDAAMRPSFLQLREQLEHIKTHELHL
The experiment in a line: DiscoveRx scanMAX kinase profiling. Conditions: read-out: Direct inhibitory activity on CSK (KINOMEscan). The method, then:
as §1, with “Biochemical assays: Recombinant human EIF2AK3 (PERK) catalytic domain (amino acids 536-1116; Cat # PV5107), GFP-eIF2a (Cat # PV4809) substrate, and Terbium-labelled phospho-eIF2a antibody (Cat # PR8956B) were purchased from Invitrogen (Carlsbad, Calif.). HIS-SUMO-GCN2 catalytic domain (amino acids 584-1019) was expressed and purified from E. coli. TR-FRET kinase” for “TR-FRET kinase”

For the next assay, the target named is T4, ERK3 (MAPK6) (Homo sapiens, UniProt Q16659).
T4 construct: purchased DiscoverX (San Diego, Calif.) scanMAX
Briefly: DiscoveRx scanMAX kinase profiling. Conditions: read-out: Direct inhibitory activity on ERK3 (KINOMEscan). The protocol:
as §1, with “Biochemical assays: Recombinant human EIF2AK3 (PERK) catalytic domain (amino acids 536-1116; Cat # PV5107), GFP-eIF2a (Cat # PV4809) substrate, and Terbium-labelled phospho-eIF2a antibody (Cat # PR8956B) were purchased from Invitrogen (Carlsbad, Calif.). HIS-SUMO-GCN2 catalytic domain (amino acids 584-1019) was expressed and purified from E. coli. TR-FRET kinase” for “TR-FRET kinase”

In the next assay the target is T5, ERK2 (MAPK1) (Homo sapiens, UniProt P28482).
T5 construct: purchased DiscoverX (San Diego, Calif.) scanMAX
T5 sequence (P28482 whole entry): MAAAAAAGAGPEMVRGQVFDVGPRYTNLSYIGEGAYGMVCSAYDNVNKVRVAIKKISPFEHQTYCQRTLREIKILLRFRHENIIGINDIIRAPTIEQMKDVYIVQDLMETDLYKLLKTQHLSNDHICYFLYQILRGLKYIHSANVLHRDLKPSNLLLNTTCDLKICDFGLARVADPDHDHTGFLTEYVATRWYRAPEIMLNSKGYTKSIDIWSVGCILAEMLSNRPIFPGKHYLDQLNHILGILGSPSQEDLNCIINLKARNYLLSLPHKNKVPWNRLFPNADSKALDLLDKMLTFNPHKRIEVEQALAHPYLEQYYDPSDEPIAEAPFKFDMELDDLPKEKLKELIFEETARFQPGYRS
Briefly: DiscoveRx scanMAX kinase profiling. As to conditions: read-out: Direct inhibitory activity on ERK2 (KINOMEscan). The method, then: as §1, with “Biochemical assays: Recombinant human EIF2AK3 (PERK) catalytic domain (amino acids 536-1116; Cat # PV5107), GFP-eIF2a (Cat # PV4809) substrate, and Terbium-labelled phospho-eIF2a antibody (Cat # PR8956B) were purchased from Invitrogen (Carlsbad, Calif.). HIS-SUMO-GCN2 catalytic domain (amino acids 584-1019) was expressed and purified from E. coli. TR-FRET kinase” for “TR-FRET kinase”

The target of a further assay is T6, ERBB3 (Homo sapiens, UniProt P21860).
T6 construct: purchased DiscoverX (San Diego, Calif.) scanMAX
T6 sequence (P21860 20-1342): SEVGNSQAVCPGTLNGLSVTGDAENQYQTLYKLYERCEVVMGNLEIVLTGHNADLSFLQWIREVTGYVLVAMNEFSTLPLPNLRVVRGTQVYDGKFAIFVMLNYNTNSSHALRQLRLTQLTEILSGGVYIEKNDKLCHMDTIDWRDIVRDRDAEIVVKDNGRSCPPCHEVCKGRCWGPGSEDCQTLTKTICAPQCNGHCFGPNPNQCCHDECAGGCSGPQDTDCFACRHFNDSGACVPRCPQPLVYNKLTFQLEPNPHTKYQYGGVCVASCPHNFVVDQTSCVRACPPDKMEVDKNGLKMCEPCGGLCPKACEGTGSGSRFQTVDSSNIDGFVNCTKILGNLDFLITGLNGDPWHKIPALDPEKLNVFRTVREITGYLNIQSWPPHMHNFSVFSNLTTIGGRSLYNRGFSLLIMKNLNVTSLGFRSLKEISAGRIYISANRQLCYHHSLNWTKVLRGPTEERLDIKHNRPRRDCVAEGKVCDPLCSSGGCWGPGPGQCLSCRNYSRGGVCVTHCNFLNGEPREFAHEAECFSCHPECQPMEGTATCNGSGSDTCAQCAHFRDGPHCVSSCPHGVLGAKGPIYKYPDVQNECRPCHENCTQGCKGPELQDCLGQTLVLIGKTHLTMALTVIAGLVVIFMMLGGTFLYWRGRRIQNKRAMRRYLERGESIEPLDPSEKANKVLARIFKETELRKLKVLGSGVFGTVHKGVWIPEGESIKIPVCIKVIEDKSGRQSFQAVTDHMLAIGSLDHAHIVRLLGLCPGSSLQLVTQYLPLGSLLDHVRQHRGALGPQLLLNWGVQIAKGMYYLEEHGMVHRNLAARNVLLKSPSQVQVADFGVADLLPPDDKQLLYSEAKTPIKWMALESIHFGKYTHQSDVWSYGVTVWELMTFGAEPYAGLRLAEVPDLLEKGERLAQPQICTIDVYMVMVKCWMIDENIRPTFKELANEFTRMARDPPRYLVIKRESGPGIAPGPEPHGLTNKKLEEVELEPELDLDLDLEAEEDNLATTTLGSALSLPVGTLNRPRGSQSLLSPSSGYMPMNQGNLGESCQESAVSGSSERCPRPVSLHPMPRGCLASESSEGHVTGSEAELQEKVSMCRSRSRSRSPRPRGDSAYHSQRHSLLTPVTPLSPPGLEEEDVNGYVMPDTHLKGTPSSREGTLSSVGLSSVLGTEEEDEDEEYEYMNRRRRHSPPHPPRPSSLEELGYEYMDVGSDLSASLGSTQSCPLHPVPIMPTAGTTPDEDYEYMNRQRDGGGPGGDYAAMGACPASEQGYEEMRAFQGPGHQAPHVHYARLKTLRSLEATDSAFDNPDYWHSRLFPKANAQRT
The experiment in a line: DiscoveRx scanMAX kinase profiling. Conditions: read-out: Direct inhibitory activity on ERBB3 (KINOMEscan). The protocol: as §1, with “Biochemical assays: Recombinant human EIF2AK3 (PERK) catalytic domain (amino acids 536-1116; Cat # PV5107), GFP-eIF2a (Cat # PV4809) substrate, and Terbium-labelled phospho-eIF2a antibody (Cat # PR8956B) were purchased from Invitrogen (Carlsbad, Calif.). HIS-SUMO-GCN2 catalytic domain (amino acids 584-1019) was expressed and purified from E. coli. TR-FRET kinase” for “TR-FRET kinase”

Another assay addresses T7, ERBB2 (Homo sapiens, UniProt P04626).
T7 construct: purchased DiscoverX (San Diego, Calif.) scanMAX
The experiment in a line: DiscoveRx scanMAX kinase profiling. As to conditions: read-out: Direct inhibitory activity on ERBB2 (KINOMEscan). The protocol: as §1, with “Biochemical assays: Recombinant human EIF2AK3 (PERK) catalytic domain (amino acids 536-1116; Cat # PV5107), GFP-eIF2a (Cat # PV4809) substrate, and Terbium-labelled phospho-eIF2a antibody (Cat # PR8956B) were purchased from Invitrogen (Carlsbad, Calif.). HIS-SUMO-GCN2 catalytic domain (amino acids 584-1019) was expressed and purified from E. coli. TR-FRET kinase” for “TR-FRET kinase”

A further assay addresses T8, AKT2 (Homo sapiens, UniProt P31751).
T8 construct: purchased DiscoverX (San Diego, Calif.) scanMAX
The experiment in a line: DiscoveRx scanMAX kinase profiling. Conditions: read-out: Direct inhibitory activity on AKT2 (KINOMEscan). The method, then: as §1, with “Biochemical assays: Recombinant human EIF2AK3 (PERK) catalytic domain (amino acids 536-1116; Cat # PV5107), GFP-eIF2a (Cat # PV4809) substrate, and Terbium-labelled phospho-eIF2a antibody (Cat # PR8956B) were purchased from Invitrogen (Carlsbad, Calif.). HIS-SUMO-GCN2 catalytic domain (amino acids 584-1019) was expressed and purified from E. coli. TR-FRET kinase” for “TR-FRET kinase”

Another assay deals with T9, ERK1 (MAPK3) (Homo sapiens, UniProt P27361).
T9 construct: purchased DiscoverX (San Diego, Calif.) scanMAX
T9 sequence (P27361 whole entry): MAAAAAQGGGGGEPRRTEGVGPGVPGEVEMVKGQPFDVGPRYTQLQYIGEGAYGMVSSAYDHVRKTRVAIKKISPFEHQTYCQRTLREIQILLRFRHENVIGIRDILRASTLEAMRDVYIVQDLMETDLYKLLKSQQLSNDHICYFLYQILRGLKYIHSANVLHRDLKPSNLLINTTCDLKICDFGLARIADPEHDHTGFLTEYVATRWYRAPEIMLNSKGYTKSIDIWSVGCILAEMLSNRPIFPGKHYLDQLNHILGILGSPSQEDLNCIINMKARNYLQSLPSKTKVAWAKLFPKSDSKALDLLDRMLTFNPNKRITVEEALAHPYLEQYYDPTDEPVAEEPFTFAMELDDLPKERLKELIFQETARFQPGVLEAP
The experiment in a line: DiscoveRx scanMAX kinase profiling. As to conditions: read-out: Direct inhibitory activity on ERK1 (KINOMEscan). The method, then:
as §1, with “Biochemical assays: Recombinant human EIF2AK3 (PERK) catalytic domain (amino acids 536-1116; Cat # PV5107), GFP-eIF2a (Cat # PV4809) substrate, and Terbium-labelled phospho-eIF2a antibody (Cat # PR8956B) were purchased from Invitrogen (Carlsbad, Calif.). HIS-SUMO-GCN2 catalytic domain (amino acids 584-1019) was expressed and purified from E. coli. TR-FRET kinase” for “TR-FRET kinase”

The next assay has as its target T10, PYK2 (PTK2B) (Homo sapiens, UniProt Q14289).
T10 construct: purchased DiscoverX (San Diego, Calif.)
Briefly: DiscoveRx scanMAX kinase profiling. As to conditions: read-out: Direct inhibitory activity on PYK2 (KINOMEscan). The protocol: as §1, with “Biochemical assays: Recombinant human EIF2AK3 (PERK) catalytic domain (amino acids 536-1116; Cat # PV5107), GFP-eIF2a (Cat # PV4809) substrate, and Terbium-labelled phospho-eIF2a antibody (Cat # PR8956B) were purchased from Invitrogen (Carlsbad, Calif.). HIS-SUMO-GCN2 catalytic domain (amino acids 584-1019) was expressed and purified from E. coli. TR-FRET kinase” for “TR-FRET kinase”

The target in a further assay is T11, SYK (Homo sapiens, UniProt P43405).
T11 construct: purchased DiscoverX (San Diego, Calif.) scanMAX
Briefly: DiscoveRx scanMAX kinase profiling. Conditions: read-out: Direct inhibitory activity on SYK (KINOMEscan). The protocol: as §1, with “Biochemical assays: Recombinant human EIF2AK3 (PERK) catalytic domain (amino acids 536-1116; Cat # PV5107), GFP-eIF2a (Cat # PV4809) substrate, and Terbium-labelled phospho-eIF2a antibody (Cat # PR8956B) were purchased from Invitrogen (Carlsbad, Calif.). HIS-SUMO-GCN2 catalytic domain (amino acids 584-1019) was expressed and purified from E. coli. TR-FRET kinase” for “TR-FRET kinase”

T1 sequence (P19525 whole entry): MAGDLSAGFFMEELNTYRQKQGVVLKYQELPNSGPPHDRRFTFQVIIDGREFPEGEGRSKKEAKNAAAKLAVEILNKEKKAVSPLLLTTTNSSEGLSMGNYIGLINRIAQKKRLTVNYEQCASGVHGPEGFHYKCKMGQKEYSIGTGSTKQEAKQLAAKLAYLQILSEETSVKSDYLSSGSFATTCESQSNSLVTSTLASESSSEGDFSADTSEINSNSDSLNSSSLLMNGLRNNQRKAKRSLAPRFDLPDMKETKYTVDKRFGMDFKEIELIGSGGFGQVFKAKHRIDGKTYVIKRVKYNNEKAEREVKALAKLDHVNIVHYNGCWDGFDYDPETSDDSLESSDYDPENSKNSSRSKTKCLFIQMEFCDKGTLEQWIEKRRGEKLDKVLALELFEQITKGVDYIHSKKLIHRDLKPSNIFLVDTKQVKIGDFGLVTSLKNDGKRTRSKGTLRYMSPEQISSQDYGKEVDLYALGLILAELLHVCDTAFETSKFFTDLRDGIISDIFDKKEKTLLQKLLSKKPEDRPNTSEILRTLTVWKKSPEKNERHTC
T7 sequence (P04626 23-1255): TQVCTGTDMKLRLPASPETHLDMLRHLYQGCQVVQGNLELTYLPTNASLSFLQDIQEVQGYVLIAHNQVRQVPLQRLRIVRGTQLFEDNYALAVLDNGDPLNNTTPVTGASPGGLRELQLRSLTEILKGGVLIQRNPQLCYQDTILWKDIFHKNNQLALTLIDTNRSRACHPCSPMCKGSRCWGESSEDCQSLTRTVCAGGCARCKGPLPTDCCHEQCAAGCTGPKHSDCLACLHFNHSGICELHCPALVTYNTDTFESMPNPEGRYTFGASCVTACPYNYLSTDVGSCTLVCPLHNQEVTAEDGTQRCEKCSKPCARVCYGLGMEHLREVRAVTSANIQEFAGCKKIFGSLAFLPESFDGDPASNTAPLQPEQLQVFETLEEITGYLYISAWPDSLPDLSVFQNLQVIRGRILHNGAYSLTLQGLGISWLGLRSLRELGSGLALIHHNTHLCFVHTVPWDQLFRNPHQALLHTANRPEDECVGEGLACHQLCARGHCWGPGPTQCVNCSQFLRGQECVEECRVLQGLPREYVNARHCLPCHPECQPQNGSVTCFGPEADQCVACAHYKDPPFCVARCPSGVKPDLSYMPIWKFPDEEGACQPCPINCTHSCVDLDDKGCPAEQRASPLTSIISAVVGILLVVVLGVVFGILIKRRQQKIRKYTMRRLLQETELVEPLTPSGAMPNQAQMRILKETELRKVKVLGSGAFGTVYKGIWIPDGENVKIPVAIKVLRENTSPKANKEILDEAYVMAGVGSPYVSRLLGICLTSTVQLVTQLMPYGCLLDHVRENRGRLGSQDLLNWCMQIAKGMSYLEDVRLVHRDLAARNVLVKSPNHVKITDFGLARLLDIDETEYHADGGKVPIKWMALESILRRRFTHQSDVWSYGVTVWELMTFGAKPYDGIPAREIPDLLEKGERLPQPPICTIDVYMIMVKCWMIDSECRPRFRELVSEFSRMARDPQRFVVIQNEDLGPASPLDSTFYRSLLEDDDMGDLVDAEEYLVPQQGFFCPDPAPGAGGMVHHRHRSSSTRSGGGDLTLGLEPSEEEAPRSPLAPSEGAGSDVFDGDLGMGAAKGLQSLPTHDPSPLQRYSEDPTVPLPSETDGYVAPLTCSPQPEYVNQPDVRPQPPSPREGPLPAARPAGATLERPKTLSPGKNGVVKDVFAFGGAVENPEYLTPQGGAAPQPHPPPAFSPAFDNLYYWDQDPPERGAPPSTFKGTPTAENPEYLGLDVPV
T8 sequence (P31751 whole entry): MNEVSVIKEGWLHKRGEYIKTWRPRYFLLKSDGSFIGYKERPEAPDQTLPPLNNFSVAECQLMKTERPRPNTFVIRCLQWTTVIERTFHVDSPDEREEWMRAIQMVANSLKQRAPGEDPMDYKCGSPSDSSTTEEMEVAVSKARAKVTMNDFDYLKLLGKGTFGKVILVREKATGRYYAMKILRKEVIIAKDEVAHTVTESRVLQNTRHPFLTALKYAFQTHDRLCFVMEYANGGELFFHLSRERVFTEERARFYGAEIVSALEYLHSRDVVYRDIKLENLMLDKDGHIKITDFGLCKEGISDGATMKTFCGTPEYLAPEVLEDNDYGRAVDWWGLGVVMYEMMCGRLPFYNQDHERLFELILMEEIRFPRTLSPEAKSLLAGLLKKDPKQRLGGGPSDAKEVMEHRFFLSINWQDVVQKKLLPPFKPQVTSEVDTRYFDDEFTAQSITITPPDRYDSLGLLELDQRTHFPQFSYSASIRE

On to `Cc1cccc(CC(=O)N2CCc3c2ccc(-c2cn(C)c4ncnc(N)c24)c3F)n1` [GSK2656157, reference compound], for which the inhibition at 0.2 µM amounted to 20% at PRKR (EIF2AK2); 7% in [1]; 0% at CSK; 0% on ERK3 (MAPK6); 0% at ERK2 (MAPK1); 40% at ERBB3. In addition, the inhibition at 0.2 µM turned out to be 57% at ERBB2; 0% on AKT2; 0% at ERK1 (MAPK3); 0% on PYK2 (PTK2B); 0% on SYK. Moreover, the inhibition at 2 µM was found to be 45% at PRKR (EIF2AK2); 13% in [1]; 33% at CSK; 16% at ERK3 (MAPK6); 0% at ERK2 (MAPK1); 22% at ERBB3. Besides, the inhibition at 2 µM came to 64% at ERBB2; 4% at AKT2; 17% at ERK1 (MAPK3); 0% on PYK2 (PTK2B); 12% at SYK. Also, the inhibition at 20 µM on PRKR (EIF2AK2) was 67%; in assay [1], 79%; on CSK, 64%; on ERK3 (MAPK6), 0%; on ERK2 (MAPK1), 0%; at ERBB3 it was 53%. For the same molecule, the inhibition at 20 µM on ERBB2 stood at 97%; at AKT2, 8%; at ERK1 (MAPK3), 0%; on PYK2 (PTK2B), 3%; at SYK it was 23%. The “# kinases inhibited >50%” value was determined as 34 on 456 kinases (0.2 μM) and 80 on 456 kinases (2.0 μM). Also, the “number of kinases with >60% inhibition” value with 456 kinases worked out at 58.
With `CNC(=O)c1nc(-c2ccc(NC(=O)[C@H](O)c3cc(F)cc(F)c3)cc2C)cnc1N` [LY2, 3-amino-6-[4-[[(2R)-2-(3,5-difluorophenyl)-2-hydroxy-acetyl]amino]-2-methyl-phenyl]-N-methyl-pyrazine-2-carboxamide], the “# kinases inhibited >50%” value amounted to 16 on 456 kinases (0.2 μM), 35 at 456 kinases (2.0 μM) and 138 on 456 kinases (20.0 μM).
With `Cc1cc(NC(=O)[C@H](O)c2cc(F)cc(F)c2)ccc1-c1cnc(N)c(C(=O)NC(C)C)c1` [LY4, 2-amino-5-[4-[[(2R)-2-(3,5-difluorophenyl)-2-hydroxy-acetyl]amino]-2-methyl-phenyl]-N-isopropyl-pyridine-3-carboxamide], the inhibition at 0.2 µM at PRKR (EIF2AK2) came out at 0%; in assay [1], 0%; on CSK it was 31%; on ERK3 (MAPK6) it was 0%; at ERK2 (MAPK1), 0%; at ERBB3, 0%. Besides, the inhibition at 0.2 µM on ERBB2 was found to be 0%; on AKT2, 0%; on ERK1 (MAPK3), 2%; on PYK2 (PTK2B), 0%; at SYK, 0%. For the same molecule, the inhibition at 2 µM on PRKR (EIF2AK2) amounted to 0%; in assay [1], 0%; at CSK, 0%; at ERK3 (MAPK6), 32%; at ERK2 (MAPK1) it was 0%; on ERBB3 it was 0%. Further, the inhibition at 2 µM at ERBB2 stood at 0%; at AKT2 it was 0%; at ERK1 (MAPK3) it was 18%; at PYK2 (PTK2B), 0%; on SYK it was 0%. Further, the inhibition at 20 µM at PRKR (EIF2AK2) worked out at 0%; in assay [1] it was 28%; on CSK, 14%; at ERK3 (MAPK6), 3%; at ERK2 (MAPK1), 1%; at ERBB3, 0%. Besides, the inhibition at 20 µM amounted to 0% at ERBB2; 0% on AKT2; 0% on ERK1 (MAPK3); 6% at PYK2 (PTK2B); 0% at SYK. In addition, the “# kinases inhibited >50%” value amounted to 19 at 456 kinases (0.2 μM) and 20 on 456 kinases (2.0 μM). For the same molecule, the “number of kinases with >60% inhibition” value in the assay on 456 kinases is listed as 8.
On to `Cc1cc(NC(=O)[C@H](O)c2cccc(F)c2)ccc1-c1cn(C)c2ncnc(N)c12` [LY3, (2R)-N-[4-(4-amino-7-methyl-pyrrolo[2,3-d]pyrimidin-5-yl)-3-methyl-phenyl]-2-(3-fluorophenyl)-2-hydroxy-acetamide], for which the “# kinases inhibited >50%” value was 27 at 456 kinases (0.2 μM), 85 on 456 kinases (2.0 μM) and 229 at 456 kinases (20.0 μM).
